Target: T1, Human BCL-XL protein (N-terminal HiBiT tagged BCL-XL expressed in HT1080 cells) (Homo sapiens, UniProt Q07817)
T1 construct: expressed in transfected cells; host or cells: HT-1080 (ATCC CCL-121), stably transduced with lentivirus pLV-UBC-N-HiBiT-BCL-XL-PGK-puro and selected with puromycin
Experiment: HiBiT Based Degradation Assay
Format: cell-based
Conditions: 24 hours incubation; for DC50: BCL-XL degradation, HT1080 cells expressing N-HiBiT-BCL-XL, normalized with DMSO control, geometric mean for multiple data points, read-out: EC50 (24 h); for Ymin (24 h): bottom of BCL-XL degradation curve (remaining HiBiT-BCL-XL signal vs DMSO control), HT1080 cells
Description: HiBiT Based Degradation Assay
Human BCL-XL protein coding open reading frame fused with N-terminal HiBiT coding sequence (N-HiBiT-BCL-XL) was synthesized from Integrated DNA Technologies (IDT). Next, N-HiBiT-BCL-XL sequence was cloned into pLV-UBC-PGK-Puro, a lentivirus plasmid purchased from Vectorbuilder, to generate pLV-UBC-N-HiBiT-BCL-XL-PGK-puro. Lentiviral particles were generated from Lenti-X™ 293T cells (Clontech) by co-transfection of pLV-UBC-N-HiBiT-BCL-XL-PGK-puro plasmids and lentiviral packaging plasmid mix (Cellecta). HT-1080 [HT1080](ATCC CCL-121™) cells were infected with the lentivirus, and HT1080 cells stably integrated with the lentiviral vector were established by incubation with 1 μg/mL puromycin (Thermofisher). HT1080 cells expressing N-terminal HiBiT tagged BCL-XL were dispensed into 384-well plates pre-spotted with compounds at varying concentrations. Three thousand cells were seeded into each well in 40 μL of RPMI 1640 media. After 24 hours of incubation at 37° C. with 5% CO2, 30 μL of the NANO-GLO® HiBiT Lytic Detection System working solution (Promega) was added to each well and incubated at room temperature for 30 min. After incubation, luminescence was read on a PHERAstar FSX Plate Reader (BMG). BCL-XL degradation at each indicated concentration was normalized with DMSO control. The BCL-XL degradation curves were plotted using a four-parameter logistic model. For compounds displaying hook effects, curve fitting was performed using bottom point of hook curves (i.e., the point of Ymin) as bottom plateau to calculate EC50. For compounds with multiple data points, the geometric mean is presented.

T1 sequence (Q07817 whole entry): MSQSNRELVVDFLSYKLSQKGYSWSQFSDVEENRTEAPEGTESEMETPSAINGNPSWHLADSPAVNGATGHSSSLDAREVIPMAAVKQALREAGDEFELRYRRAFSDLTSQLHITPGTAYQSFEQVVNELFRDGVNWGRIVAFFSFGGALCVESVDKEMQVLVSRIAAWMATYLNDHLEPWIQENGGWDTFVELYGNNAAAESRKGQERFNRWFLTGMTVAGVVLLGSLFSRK

| DC50 | Ymin (24 h) | SMILES |
| --- | --- | --- |
| < 10 nM | A (Ymin < 30%) | Cc1cc(OCCCC2CCN(CCCc3ccc4c(C5CCC(=O)NC5=O)nn(C)c4c3)CC2)ccc1-c1ccc(N2CCc3cccc(C(=O)Nc4nc5ccccc5s4)c3C2)nc1C(=O)O (stereo not shown) [Compound 151, 6-(8-(benzo[d]thiazol-2-ylcarbamoyl)-3,4-dihydroisoquinolin-2(1H)-yl)-3-(4-(3-(1-(3-(3-(2,6-dioxopiperidin-3-yl)-1-methyl-1H-indazol-6-yl)propyl)piperidin-4-yl)propoxy)-2-methylphenyl)picolinic acid] |
| 10 to 100 nM | B (30% ≤ Ymin < 50%) | Cn1nc(C2CCC(=O)NC2=O)c2ccc(NC(=O)CN3CCC(CCCOc4cccc(-c5ccc(N6CCc7cccc(C(=O)Nc8nc9ccccc9s8)c7C6)nc5C(=O)O)c4F)CC3)cc21 (stereo not shown) [Compound 198] |
| 10 to 100 nM | B (30% ≤ Ymin < 50%) | COc1c(NC(=O)CN2CCC3(CC2)CC(Oc2ccc(-c4ccc(N5CCc6ccnc(C(=O)Nc7nc8ccccc8s7)c6C5)nc4C(=O)O)c(C(F)(F)F)c2)C3)ccc2c(C3CCC(=O)NC3=O)nn(C)c12 (stereo not shown) [Compound 171, 6-(8-(benzo[d]thiazol-2-ylcarbamoyl)-3,4-dihydro-2,7-naphthyridin-2(1H)-yl)-3-(4-((7-(2-((3-(2,6-dioxopiperidin-3-yl)-7-methoxy-1-methyl-1H-indazol-6-yl)amino)-2-oxoethyl)-7-azaspiro[3.5]nonan-2-yl)oxy)-2-(trifluoromethyl)phenyl)picolinic acid] |
| 10 to 100 nM | C (50% ≤ Ymin < 70%) | Cc1cc(OCCCC2CCN(CC(=O)Nc3cc4c(cc3F)c(C3CCC(=O)NC3=O)nn4C)CC2)ccc1-c1ccc(N2CCc3cccc(C(=O)Nc4nc5ccccc5s4)c3C2)nc1C(=O)O (stereo not shown) [Compound 109] |
| < 10 nM | B (30% ≤ Ymin < 50%) | Cc1c(OCCCC2CCN(CCOc3ccc4c(C5CCC(=O)NC5=O)nn(C)c4c3)CC2)cccc1-c1ccc(N2CCc3cccc(C(=O)Nc4nc5ccccc5s4)c3C2)nc1C(=O)O (stereo not shown) [Compound 156] |
| 10 to 100 nM | B (30% ≤ Ymin < 50%) | COc1c(NC(=O)CN2CCC(CCCOc3ccc(-c4ccc(N5CCc6ccnc(C(=O)Nc7nc8ccccc8s7)c6C5)nc4C(=O)O)c(C(F)(F)F)c3)CC2)ccc2c(C3CCC(=O)NC3=O)nn(C)c12 (stereo not shown) [Compound 158, 6-[8-(1,3-benzothiazol-2-ylcarbamoyl)-3,4-dihydro-1H-2,7-naphthyridin-2-yl]-3-[4-[3-[1-[2-[[3-(2,6-dioxo-3-piperidyl)-7-methoxy-1-methyl-indazol-6-yl]amino]-2-oxo-ethyl]-4-piperidyl]propoxy]-2-(trifluoromethyl)phenyl]pyridine-2-carboxylic acid] |
| < 10 nM | B (30% ≤ Ymin < 50%) | Cn1nc(C2CCC(=O)NC2=O)c2ccc(NC(=O)CN3CCC4(CC3)CC(Oc3ccc(-c5ccc(N6CCc7ccnc(C(=O)Nc8nc9ccccc9s8)c7C6)nc5C(=O)O)c(C(F)(F)F)c3)C4)cc21 (stereo not shown) [Compound 168, 6-[8-(1,3-benzothiazol-2-ylcarbamoyl)-3,4-dihydro-1H-2,7-naphthyridin-2-yl]-3-[4-[[7-[2-[[3-(2,6-dioxo-3-piperidyl)-1-methyl-indazol-6-yl]amino]-2-oxo-ethyl]-7-azaspiro[3.5]nonan-2-yl]oxy]-2-(trifluoromethyl)phenyl]pyridine-2-carboxylic acid] |
| < 10 nM | A (Ymin < 30%) | COc1c(NC(=O)CN2CCC3(CC2)CC(Oc2ccc(-c4ccc(N5CCc6cccc(C(=O)Nc7nc8ccccc8s7)c6C5)nc4C(=O)O)c(C)c2)C3)ccc2c(C3CCC(=O)NC3=O)nn(C)c12 (stereo not shown) [Compound 170, 6-(8-(benzo[d]thiazol-2-ylcarbamoyl)-3,4-dihydroisoquinolin-2(1H)-yl)-3-(4-((7-(2-((3-(2,6-dioxopiperidin-3-yl)-7-methoxy-1-methyl-1H-indazol-6-yl)amino)-2-oxoethyl)-7-azaspiro[3.5]nonan-2-yl)oxy)-2-methylphenyl)picolinic acid] |
| < 10 nM | B (30% ≤ Ymin < 50%) | Cc1cc(OC2CC3(CCN(CC(=O)Nc4ccc5c(C6CCC(=O)NC6=O)nn(C)c5c4F)CC3)C2)ccc1-c1ccc(N2CCc3cccc(C(=O)Nc4nc5ccccc5s4)c3C2)nc1C(=O)O (stereo not shown) [Compound 191] |
| 10 to 100 nM | B (30% ≤ Ymin < 50%) | Cn1nc(C2CCC(=O)NC2=O)c2ccc(NC(=O)CN3CCC(CCCOc4cccc(-c5ccc(N6CCc7ccnc(C(=O)Nc8nc9ccccc9s8)c7C6)nc5C(=O)O)c4C(F)(F)F)CC3)cc21 (stereo not shown) [Compound 159, 6-[8-(1,3-benzothiazol-2-ylcarbamoyl)-3,4-dihydro-1H-2,7-naphthyridin-2-yl]-3-[3-[3-[1-[2-[[3-(2,6-dioxo-3-piperidyl)-1-methyl-indazol-6-yl]amino]-2-oxo-ethyl]-4-piperidyl]propoxy]-2-(trifluoromethyl)phenyl]pyridine-2-carboxylic acid] |
| 10 to 100 nM | A (Ymin < 30%) | Cc1cc(O[C@H](C)CCC2CCN(CC(=O)Nc3ccc4c(C5CCC(=O)NC5=O)nn(C)c4c3F)CC2)ccc1-c1ccc(N2CCc3cccc(C(=O)Nc4nc5ccccc5s4)c3C2)nc1C(=O)O (single isomer, unassigned) [Compound 224b] |
| 10 to 100 nM | C (50% ≤ Ymin < 70%) | Cn1nc(C2CCC(=O)NC2=O)c2ccc(NC(=O)CN3CCC(CCCOc4cccc(-c5ccc(N6CCc7cccc(C(=O)Nc8nc9ccccc9s8)c7C6)nc5C(=O)O)c4F)CC3)c(F)c21 (stereo not shown) [Compound 211] |
| 10 to 100 nM | A (Ymin < 30%) | Cc1cc(OCCC[C@@H]2CCN(CC(=O)Nc3ccc4c(C5CCC(=O)NC5=O)nn(C)c4c3)[C@@H](C)C2)ccc1-c1ccc(N2CCc3cccc(C(=O)Nc4nc5ccccc5s4)c3C2)nc1C(=O)O (stereo partly shown) [Compound 210a] |
| < 10 nM | B (30% ≤ Ymin < 50%) | C[C@@H](CCC1CCN(CC(=O)Nc2ccc3c(C4CCC(=O)NC4=O)nn(C)c3c2)CC1)Oc1ccc(-c2ccc(N3CCc4cccc(C(=O)Nc5nc6ccccc6s5)c4C3)nc2C(=O)O)c(C(F)(F)F)c1 (single isomer, unassigned) [Compound 138a] |
| < 10 nM | A (Ymin < 30%) | COc1c(NC(=O)CN2CC[C@H](CCCOc3ccc(-c4ccc(N5CCc6cccc(C(=O)Nc7nc8ccccc8s7)c6C5)nc4C(=O)O)c(C)c3)C[C@H]2C)ccc2c(C3CCC(=O)NC3=O)nn(C)c12 (stereo partly shown) [Compound 210c] |
| 10 to 100 nM | B (30% ≤ Ymin < 50%) | Cc1c(OCCC2CC3(CCN(CC(=O)Nc4ccc5c(C6CCC(=O)NC6=O)nn(C)c5c4)CC3)C2)cccc1-c1ccc(N2CCc3cccc(C(=O)Nc4nc5ccccc5s4)c3C2)nc1C(=O)O (stereo not shown) [Compound 114, 6-(8-(benzo[d]thiazol-2-ylcarbamoyl)-3,4-dihydroisoquinolin-2(1H)-yl)-3-(3-(2-(7-(2-((3-(2,6-dioxopiperidin-3-yl)-1-methyl-1H-indazol-6-yl)amino)-2-oxoethyl)-7-azaspiro[3.5]nonan-2-yl)ethoxy)-2-methylphenyl)picolinic acid] |

| SMILES | DC50 | Ymin (24 h) |
| --- | --- | --- |
| Cc1c(OCC[C@@H]2C[C@H]3CC[C@@H](C2)N3CC(=O)Nc2ccc3c(C4CCC(=O)NC4=O)nn(C)c3c2)cccc1-c1ccc(N2CCc3cccc(C(=O)Nc4nc5ccccc5s4)c3C2)nc1C(=O)O (stereo partly shown) [Compound 174a] | < 10 nM | A (Ymin < 30%) |
